Measurements reported in patent US20080241919A1, “Defined media for pluripotent stem cell culture” (The Burnham Institute of Medical Research, priority 2003, published 2008).

Columns and labels:
[1] = system: human embryonic stem cells (hESCs); assay: bFGF dose-response, maintenance of undifferentiated hESCs under feeder-free condition on laminin/collagen-coated plates; assay type: cell-based
Protocol: (c) bFGF dose-response assays—assessing maintenance of the undifferentiated state.
To discover the minimal essential conditions needed to support the long-term growth of undifferentiated hESCs, morphological analysis was used to assess the developmental stage of hESCs at different times. For these analyses hESCs were grown in a 6- or 12-well plate to maturation (day 6 or 7 after seeding) before being fixed and visualized under a phase contrast microscope. Cellular immunofluorescence was also employed to assess the state of differentiation of hESCs. To perform these studies, hESCs were grown to maturation (day 6 or 7 after seeding) in a 12- or 24-well plate with a round cover slide in the bottom of each well. The cells were then fixed with 4% paraformaldehyde and blocked in PBS buffer containing 0.2% Triton X-100 and 2% BSA. Next, the cells were incubated with a primary antibody (Oct-4, SSEA-1, SSEA-3, SSEA-4, Tra-1-60, Tra-1-81, alkaline phosphatase, Myc, Map-2, Nkx2.5, bFGF (Santa Cruz Biotechnology, Inc.; Santa Cruz, Calif., world wide web: scbt.com) nestin, tyrosine hydroxylase (Chemicon International, Temecula, Calif., world wide web: chemicon.com), beta-tubulin (Sigma), p300, Tip60, or acetylated H4 (K5, 8, 12, 16) (Upstate Biotechnology, Lake Placid, N.Y., world wide web: upstate.com) in wash buffer (0.1% Triton X-100 in PBS) at 4° C. overnight, and then with secondary antibody (Molecular Probe; Eugene, Oreg., world wide web: probes.com) in wash buffer at room temperature for 45 minutes. After further staining with DAPI, cells were mounted onto a microscope slide and visualized under an immunofluorescence and deconvolution microscope. The state of differentiation of hESC was further assessed by generating (via lentiviral-mediated transduction) hESCs carrying a reporter gene (enhanced green fluorescence protein (EGFP)) under control of the Oct-4 promoter. Using these transfected hESCs (carrying Oct-4 driven EGFP), the undifferentiated state of hESCs can be visualized by green fluorescence (indicating Oct-4 expression).
The mechanism by which MEF-conditioned media exerts these effects is unknown, and it could involve the presence of growth factors, removal of toxic factors from the medium, or both. Based on the discovery that bFGF (at relatively high concentrations) promotes undifferentiated growth of hESCs on HFFs, it was decided to test whether bFGF promotes undifferentiated growth of hESCs on matrix proteins in the absence of feeder cells. Gelatin pre-coated plates were incubated with a commercially-available combination of laminin and collagen known as Matrigel (Growth factor reduced, Becton Dickinson) [diluted 1:30 in cold DMEM/F-12] at 4° C. overnight. The growth of hESCs on laminin/collagen-coated plates in the defined hESC media containing 20 ng/ml bFGF was examined. […]
To further assess the effect of bFGF on hESC undifferentiated growth, short-term proliferation assays of hESCs maintained under the feeder-free condition in the defined hESC media containing 0, 4, 10, 20, 30, or 50 ng/ml bFGF were performed. […] To further affirm the role of bFGF on hESC undifferentiated growth, hESCs carrying a reporter gene (enhanced green fluorescence protein [EGFP]) under control of Oct-4 promoter were generated (via lentiviral-mediated transduction).

[2] = system: acetylated histone H3 and H4, Myc, Tip60 HAT, p300 HAT; assay: Chromatin state immunofluorescence (acetylated H3/H4, Myc, Tip60, p300) in hESCs; assay type: cell-based, human; details: named factor omitted from the media
Source text: (c) Presence of both bFGF and insulin is essential for maintenance of an acetylated transcriptionally active chromatin state in undifferentiated hESCs. When either bFGF or insulin is omitted from the media, the differentiated hESC colonies express the differentiation-associated cell surface marker SSEA-1 [B, C] […] (green), Myc [E, F] (red), and histone acetyltransferase (HAT) Tip60 [I, K] (green) and p300 [J, K] […] All cells are indicated by DAPI staining of their nuclei (blue).
To discover the minimal essential conditions needed to support the long-term growth of undifferentiated hESCs, morphological analysis was used to assess the developmental stage of hESCs at different times. For these analyses hESCs were grown in a 6- or 12-well plate to maturation (day 6 or 7 after seeding) before being fixed and visualized under a phase contrast microscope. Cellular immunofluorescence was also employed to assess the state of differentiation of hESCs. […] The state of differentiation of hESC was further assessed by generating (via lentiviral-mediated transduction) hESCs carrying a reporter gene (enhanced green fluorescence protein (EGFP)) under control of the Oct-4 promoter. Using these transfected hESCs (carrying Oct-4 driven EGFP), the undifferentiated state of hESCs can be visualized by green fluorescence (indicating Oct-4 expression). […]

[3] = system: human embryonic stem cells (hESCs); assay: Undifferentiated growth of hESCs on human foreskin fibroblast (HFF) feeder layer; assay type: cell-based
Protocol: Next, in order to establish a culture system that was free of non-human animal products, the human foreskin fibroblast (HFF) cell line Hs27 was used as a feeder layer. The human foreskin fibroblast (HFF) cell line, Hs27 (ATCC; Manassas, Va.; www.atcc.org) was expanded to create a master bank of frozen cells. The HFFs were plated in gelatin pre-coated 60 mm plates or 6-well plates at a density of 1.7×10^4/cm^2 and inactivated by irradiating at 50 Gy using a ^137Cs gamma-irradiator before being used as feeder cells. Undifferentiated hESCs, although originally maintained on MEFs, were transferred to plates of HFFs that had been mitotically inactivated by gamma irradiation. In the first attempts to transfer the hESCs to the human feeder layers, far more differentiated cells compared to those grown on MEFs were observed. When dealing with hESCs, the undifferentiated state was assessed by three criteria: (a) distinctive and defining stage-specific morphology and size; (b) the expression of immunomarkers associated with pluripotency; and (c) the absence of immunomarkers associated with lineage commitment.
In this media, less than 80% undifferentiated hESC colonies were observed on HFF feeders on every passage.

## bFGF: basic fibroblast growth factor, growth factor added to the defined hESC media
[1]; absence of bFGF, laminin/collagen, first passage
  hESC colonies with completely differentiated morphology that ceased expressing Oct-4: approximately 80%
[1]; bFGF 30 and 50 ng/ml versus 20 ng/ml, 7 days
  percentage of undifferentiated hESC colonies at higher dosages: slightly decreased percentages of undifferentiated hESC colonies
[1]; defined hESC media containing 20 ng/ml bFGF, laminin/collagen-coated plates, each passage, day 7
  hESC colonies highly compact and undifferentiated (morphology, Oct-4, SSEA-4, Tra-1-60, Tra-1-81 expression): Over 80%
[1]; low concentration of bFGF (4 ng/ml), feeder-free, defined media
  differentiation rate of hESCs: high differentiation rates
[1]; tested 0, 4, 10, 20, 30, 50 ng/ml, 7 days
  bFGF concentration maintaining the optimal proportion of undifferentiated hESCs, comparable to MEF-CM: 20 ng/mL
[2]
  immunoreactivity to acetylated H3 and H4, Myc, Tip60 HAT, nuclear focal localization of p300 HAT: undetectable or weak immunoreactivity
[3]; bFGF increased to 20 ng/ml from 4 ng/ml
  size of hESC colonies on HFFs: significantly larger
[3]; medium with bFGF 20 ng/ml
  number of passages undifferentiated hESCs maintained on HFF feeder layers: more than 50 passages
  time undifferentiated hESCs maintained on HFF feeder layers: over 12 months
[3]; medium with bFGF 20 ng/ml, 20% knockout Serum Replacement
  undifferentiated hESC colonies on HFF feeders on every passage: less than 80%
